Experiment: mn = molality of the nth substance listed, in mol/kg
Details: 100 kPa, Liquid, Frequency=2 MHz, Linear variable-path acoustic interferometer

OC[C@H]1OC(O)C[C@@H](O)[C@@H]1O (stereo partly drawn) [2-deoxy-D-glucose] + O
speed of sound [m/s]
Details | m1 = 0.04452 | m1 = 0.06258 | m1 = 0.08916 | m1 = 0.09804 | m1 = 0.1031 | m1 = 0.1275
288.15 K | 1468.5 | 1469.6 | 1471.1 | 1471.6 | 1471.9 | 1473.2
298.15 K | 1499.2 | 1500.1 | 1501.4 | 1501.9 | 1502.1 | 1503.3
308.15 K | 1522.1 | 1523 | 1524.3 | 1524.7 | 1524.9 | 1526.1
318.15 K | 1538.2 | 1539 | 1540.1 | 1540.5 | 1540.7 | 1541.6

O=C[C@H](O)[C@@H](O)[C@H](O)[C@H](O)CO [D-glucose] + O
speed of sound [m/s]
Details | m1 = 0.054 | m1 = 0.07085 | m1 = 0.09905 | m1 = 0.1196 | m1 = 0.1221 | m1 = 0.1388
288.15 K | – | 1470.8 | 1472.7 | 1474.2 | 1474.3 | 1475.5
298.15 K | – | 1501.1 | 1502.9 | 1504.2 | 1504.3 | 1505.3
308.15 K | 1523.1 | 1524.7 | 1527.4 | 1529.3 | 1529.5 | 1531.1
318.15 K | – | 1540.7 | 1543.2 | 1545 | 1545.2 | 1546.6

OC[C@H]1O[C@H](OC[C@H]2O[C@H](O[C@]3(CO)O[C@H](CO)[C@@H](O)[C@@H]3O)[C@H](O)[C@@H](O)[C@@H]2O)[C@H](O)[C@@H](O)[C@H]1O [D-raffinose] + O
speed of sound [m/s]
Details | m1 = 0.05849 | m1 = 0.0723 | m1 = 0.087 | m1 = 0.1083 | m1 = 0.1225 | m1 = 0.143
288.15 K | 1478.1 | 1481 | 1484.1 | 1488.6 | 1491.6 | 1496
298.15 K | 1509 | 1512 | 1515.1 | 1519.7 | 1522.7 | 1527.1
308.15 K | 1531.9 | 1534.8 | 1537.9 | 1542.3 | 1545.3 | 1549.7
318.15 K | 1548.3 | 1551.1 | 1554.1 | 1558.5 | 1561.5 | 1565.8

O=C[C@H](O)[C@H](O)[C@H](O)CO [D-ribose] + O
speed of sound [m/s]
Details | m1 = 0.04514 | m1 = 0.06075 | m1 = 0.08352 | m1 = 0.112 | m1 = 0.1348 | m1 = 0.1523
288.15 K | 1468.7 | 1469.7 | 1471.1 | 1472.9 | 1474.3 | 1475.4
298.15 K | 1499.1 | 1499.9 | 1501 | 1502.5 | 1503.6 | 1504.5
308.15 K | 1522 | 1522.7 | 1523.7 | 1525.1 | 1526.1 | 1526.9
318.15 K | 1538.3 | 1538.9 | 1539.9 | 1541 | 1542 | 1542.8

N.O=P(O)(O)O [ammonium dihydrogen phosphate] + O
speed of sound [m/s]
Details | 288.15 K | 298.15 K | 308.15 K | 318.15 K
m1 = 0.5 | 1506.4 | 1534.2 | 1555.1 | 1570.8
m1 = 1 | 1554.5 | 1579.6 | 1598.1 | 1610.2
m1 = 1.5 | 1609.2 | 1629.9 | 1645.1 | 1654.4
m1 = 2 | 1672.6 | 1686.2 | 1697.2 | 1703.1

CO[C@H]1O[C@H](CO)[C@@H](O)[C@H](O)[C@H]1O [methyl-α-D-glucopyranoside] + O
speed of sound [m/s]
Details | m1 = 0.05678 | m1 = 0.06847 | m1 = 0.08732 | m1 = 0.1192 | m1 = 0.1293 | m1 = 0.1466
288.15 K | 1470.7 | 1471.7 | 1473.2 | 1475.8 | 1476.6 | 1478
298.15 K | 1501.2 | 1502 | 1503.5 | 1506 | 1506.7 | 1508
308.15 K | 1524 | 1524.9 | 1526.3 | 1528.6 | 1529.4 | 1530.6
318.15 K | 1540.5 | 1541.3 | 1542.7 | 1545 | 1545.7 | 1546.9

O=P([O-])(O)O.[Na+] [sodium dihydrogen phosphate] + O
speed of sound [m/s]
Details | 288.15 K | 298.15 K | 308.15 K | 318.15 K
m1 = 0.5 | 1516.7 | 1547.3 | 1567.5 | 1582.6
m1 = 1 | 1563.2 | 1598 | 1618.9 | 1638.8
m1 = 1.5 | 1607.3 | 1649 | 1675 | 1704.8
m1 = 2 | 1649.2 | 1700.3 | 1735.7 | 1782.8

O=P([O-])([O-])[O-].[K+].[K+].[K+] [tripotassium phosphate] + O
speed of sound [m/s]
Details | 288.15 K | 298.15 K | 308.15 K | 318.15 K
m1 = 0.5 | 1586.2 | 1598.1 | 1609.9 | 1622.6
m1 = 1 | 1693.5 | 1698.6 | 1704.1 | 1708
m1 = 1.5 | 1789.2 | 1791.8 | 1793.8 | 1796
m1 = 2 | 1878.3 | 1882.5 | 1885.8 | 1889.4
